Data taken from patent US20230265151A1, “GIP/GLP1 CO-AGONIST COMPOUNDS” (priority 2020, published 2023).
Like-named read-outs stand apart in the source and are kept apart here. *1 amine or outer side, *2 acyl side, *3 side chain or, on linkers, in order; H or OH if unused. Where a SMILES comes first, the peptide text is derived from it. Side-chain parts run from the residue outwards. [ ]: non-standard residue; d: D form. The star is where a group is joined. αMePhe(2-F) = C[C@](N)(Cc1ccccc1F)C(=O)O; γGlu = O=C(O)[C@H](CCC(=O)[*:2])N[*:1]; C14 diacid = O=C(O)CCCCCCCCCCCCC(=O)*; αMeY = C[C@](N)(Cc1ccc(O)cc1)C(=O)O; αMeL = CC(C)C[C@](C)(N)C(=O)O; Orn = NCCC[C@H](N)C(=O)O; AEEA = NCCOCCOCC(=O)O; Aib = CC(C)(N)C(=O)O

How the values were obtained:
Type in all cases: cell-based
hGIPR = target: T1, hGIPR (Homo sapiens, UniProt P48546); test: Functional cAMP formation (HTRF) in HEK-293 clonal cells expressing hGIPR, 0.1% bovine casein, without or with 1.0% human serum albumin; details: for EC50: geometric mean, read-out: hGIPR EC50, nM (SEM, n); for Emax: read-out: hGIPR Emax, % ± SEM
T1 construct: expressed in transfected cells
T1 sequence (P48546 22-466): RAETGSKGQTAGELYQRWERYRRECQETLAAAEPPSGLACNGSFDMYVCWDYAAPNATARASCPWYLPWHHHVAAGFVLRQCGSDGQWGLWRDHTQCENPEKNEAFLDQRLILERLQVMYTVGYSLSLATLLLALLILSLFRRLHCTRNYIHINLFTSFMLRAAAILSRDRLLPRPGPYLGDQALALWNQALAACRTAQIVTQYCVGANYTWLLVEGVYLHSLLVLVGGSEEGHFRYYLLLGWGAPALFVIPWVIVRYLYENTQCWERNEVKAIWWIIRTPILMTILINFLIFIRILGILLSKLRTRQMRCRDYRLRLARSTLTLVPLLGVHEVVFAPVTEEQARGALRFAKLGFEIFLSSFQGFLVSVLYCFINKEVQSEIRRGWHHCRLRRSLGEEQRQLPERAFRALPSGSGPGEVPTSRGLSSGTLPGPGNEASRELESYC
How it was run: (§1)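 Cells were stimulated with peptide for 30 min at 37° C, then lysed in buffer carrying cAMP-d2 and anti-cAMP Eu3+-cryptate for a competitive HTRF read after at least 60 min at room temperature. The 665/620 nm ratio was converted to nM cAMP against a standard curve.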

hGCGR = target: T2, hGCGR (Homo sapiens, UniProt P47871); test: Functional cAMP formation (HTRF) in HEK-293 clonal cells expressing hGCGR, 0.1% bovine casein, without or with 1.0% human serum albumin; details: geometric mean, read-out: hGCGR EC50, nM (SEM, n)
T2 construct: expressed in transfected cells
How it was run: as §1

hGLP-1R = hGLP-1R (Homo sapiens, UniProt P43220); test: Functional cAMP formation (HTRF) in HEK-293 clonal cells expressing hGLP-1R, 0.1% bovine casein, without or with 1.0% human serum albumin; parameters: expressed in transfected cells; details: for Emax: read-out: hGLP-1R Emax, % ± SEM; for EC50: geometric mean, read-out: hGLP-1R EC50, nM (SEM, n)
How it was run: as §1

[1] = 0.1% bovine casein and 1.0% human serum albumin, 37° C.
[2] = HEK293, 0.1% bovine casein and 1.0% human serum albumin, 37° C., percent of maximal response to GIP(1-42)NH2
[3] = cAMP, incubated at 37° C., 0.1% bovine casein (no human serum albumin)
[4] = HEK293, 0.1% bovine casein and 1.0% human serum albumin, 37° C., percent of maximal response to GLP-1(7-36)NH2
[5] = HEK293, percent of maximal response to GLP-1(7-36)NH2, 37° C., 0.1% bovine casein, arithmetic mean

T2 sequence (P47871 26-477): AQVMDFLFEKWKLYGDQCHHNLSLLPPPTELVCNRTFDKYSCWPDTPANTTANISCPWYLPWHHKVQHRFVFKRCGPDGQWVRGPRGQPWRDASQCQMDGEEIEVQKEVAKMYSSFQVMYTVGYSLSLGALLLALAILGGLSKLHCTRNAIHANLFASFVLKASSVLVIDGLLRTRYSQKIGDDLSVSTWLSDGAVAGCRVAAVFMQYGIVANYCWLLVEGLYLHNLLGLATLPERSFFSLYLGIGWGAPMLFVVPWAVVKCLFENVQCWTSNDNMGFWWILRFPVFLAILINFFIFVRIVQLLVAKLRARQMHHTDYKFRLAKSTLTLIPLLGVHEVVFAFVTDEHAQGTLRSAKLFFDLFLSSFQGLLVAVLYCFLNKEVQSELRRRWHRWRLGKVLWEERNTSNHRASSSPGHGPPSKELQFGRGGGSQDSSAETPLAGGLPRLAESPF
Sequence of hGLP-1R (P43220 24-463): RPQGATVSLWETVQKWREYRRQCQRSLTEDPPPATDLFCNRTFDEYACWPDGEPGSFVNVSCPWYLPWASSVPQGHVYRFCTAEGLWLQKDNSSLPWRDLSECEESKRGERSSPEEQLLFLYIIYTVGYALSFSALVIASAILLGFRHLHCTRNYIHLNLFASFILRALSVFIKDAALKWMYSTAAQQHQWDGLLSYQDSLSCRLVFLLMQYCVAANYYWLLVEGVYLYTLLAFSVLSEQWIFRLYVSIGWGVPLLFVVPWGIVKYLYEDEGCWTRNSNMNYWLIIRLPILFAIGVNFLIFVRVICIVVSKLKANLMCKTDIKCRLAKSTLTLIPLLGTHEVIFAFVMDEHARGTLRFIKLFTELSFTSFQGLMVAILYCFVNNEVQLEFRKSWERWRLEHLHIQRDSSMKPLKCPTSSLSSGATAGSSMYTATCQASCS

## CC[C@H](C)[C@H](NC(=O)[C@H](CC(C)C)NC(=O)[C@](C)(Cc1ccc(O)cc1)NC(=O)[C@@H](CCC(=O)O)NC(=O)[C@@H](NC(=O)[C@H](Cc1ccccc1)NC(=O)[C@H](CCC(=O)O)NC(=O)C(C)(C)NC(=O)[C@H](CCC(N)=O)NC(=O)[C@H](C)NC(=O)[C@H](CCCCNC(=O)COCCOCCNC(=O)COCCOCCNC(=O)CC[C@H](NC(=O)CCCCCCCCCCCCC(=O)O)C(=O)O)NC(=O)[C@H](CCCN)NC(=O)[C@H](CC(=O)O)NC(=O)[C@H](CC(C)C)NC(=O)[C@](C)(CC(C)C)NC(=O)[C@@H](NC(=O)C(C)(C)NC(=O)[C@H](Cc1ccc(O)cc1)NC(=O)[C@H](CC(=O)O)NC(=O)[C@H](CO)NC(=O)[C@@H](NC(=O)[C@](C)(Cc1ccccc1F)NC(=O)[C@@H](NC(=O)CNC(=O)[C@H](CCC(=O)O)NC(=O)C(C)(C)NC(=O)[C@@H](N)Cc1ccc(O)cc1)[C@@H](C)O)[C@@H](C)O)[C@@H](C)CC)[C@@H](C)CC)C(=O)N[C@@H](CCCCNC(=O)COCCOCCNC(=O)COCCOCCNC(=O)CC[C@H](NC(=O)CCCCCCCCCCCCC(=O)O)C(=O)O)C(=O)NCC(=O)NCC(=O)N1CCC[C@H]1C(=O)N[C@@H](CO)C(=O)N[C@@H](CO)C(=O)NCC(=O)N[C@@H](C)C(=O)N1CCC[C@H]1C(=O)N1CCC[C@H]1C(=O)N1CCC[C@H]1C(=O)N[C@@H](CO)C(N)=O [Example 231]
hGIPR; [1]
  EC50: 2.46 nM
hGIPR; [2]
  Emax: 85.4%
hGIPR; [3]
  EC50: 0.0184 nM
hGCGR; [1]
  EC50: > 9950 nM
hGCGR; [3]
  EC50: > 9950 nM
hGLP-1R; [4]
  Emax: 109%
hGLP-1R; [3]
  EC50: 1.22 nM

## CC[C@H](C)[C@H](NC(=O)[C@H](CC(C)C)NC(=O)[C@](C)(Cc1ccc(O)cc1)NC(=O)[C@@H](CCC(=O)O)NC(=O)[C@@H](NC(=O)[C@H](Cc1ccccc1)NC(=O)[C@H](CCC(=O)O)NC(=O)C(C)(C)NC(=O)[C@H](CCC(N)=O)NC(=O)[C@H](C)NC(=O)[C@H](CCCCNC(=O)COCCOCCNC(=O)COCCOCCNC(=O)CC[C@H](NC(=O)CCCCCCCCCCCCC(=O)O)C(=O)O)NC(=O)[C@H](CCCN)NC(=O)[C@H](CC(=O)O)NC(=O)[C@H](CC(C)C)NC(=O)[C@](C)(CC(C)C)NC(=O)[C@@H](NC(=O)C(C)(C)NC(=O)[C@H](Cc1ccc(O)cc1)NC(=O)[C@H](CC(=O)O)NC(=O)[C@H](CO)NC(=O)[C@@H](NC(=O)[C@](C)(Cc1ccccc1F)NC(=O)[C@@H](NC(=O)CNC(=O)[C@H](CCC(=O)O)NC(=O)C(C)(C)NC(=O)[C@@H](N)Cc1ccc(O)cc1)[C@@H](C)O)[C@@H](C)O)[C@@H](C)CC)[C@@H](C)CC)C(=O)N[C@@H](CCC(=O)O)C(=O)NCC(=O)NCC(=O)N1CCC[C@H]1C(=O)N[C@@H](CO)C(=O)N[C@@H](CO)C(=O)NCC(=O)N[C@@H](C)C(=O)N1CCC[C@H]1C(=O)N1CCC[C@H]1C(=O)N1CCC[C@H]1C(=O)N[C@@H](CO)C(=O)N[C@@H](CCCCNC(=O)COCCOCCNC(=O)COCCOCCNC(=O)CC[C@H](NC(=O)CCCCCCCCCCCCC(=O)O)C(=O)O)C(N)=O [Example 232]
hGIPR; [2]
  Emax: 91.5%
hGIPR; [3]
  EC50: 0.0192 nM
hGCGR; [1]
  EC50: > 9950 nM
hGCGR; [3]
  EC50: > 9950 nM
hGLP-1R; [4]
  Emax: 95.4%
hGLP-1R; [3]
  EC50: 0.565 nM

## CC[C@H](C)[C@H](NC(=O)[C@H](CCCN)NC(=O)[C@H](CC(=O)O)NC(=O)[C@H](CC(C)C)NC(=O)[C@](C)(CC(C)C)NC(=O)[C@@H](NC(=O)C(C)(C)NC(=O)[C@H](Cc1ccc(O)cc1)NC(=O)[C@H](CC(=O)O)NC(=O)[C@H](CO)NC(=O)[C@@H](NC(=O)[C@](C)(Cc1ccccc1F)NC(=O)[C@@H](NC(=O)CNC(=O)[C@H](CCC(=O)O)NC(=O)C(C)(C)NC(=O)[C@@H](N)Cc1ccc(O)cc1)[C@@H](C)O)[C@@H](C)O)[C@@H](C)CC)C(=O)N[C@@H](C)C(=O)N[C@@H](CCC(N)=O)C(=O)NC(C)(C)C(=O)N[C@@H](CCC(=O)O)C(=O)N[C@@H](Cc1ccccc1)C(=O)N[C@H](C(=O)N[C@@H](CCCCNC(=O)COCCOCCNC(=O)COCCOCCNC(=O)CC[C@H](NC(=O)CCCCCCCCCCCCC(=O)O)C(=O)O)C(=O)N[C@@](C)(Cc1ccc(O)cc1)C(=O)N[C@@H](CC(C)C)C(=O)N[C@H](C(=O)N[C@@H](CCCCNC(=O)COCCOCCNC(=O)COCCOCCNC(=O)CC[C@H](NC(=O)CCCCCCCCCCCCC(=O)O)C(=O)O)C(=O)NCC(=O)NCC(=O)N1CCC[C@H]1C(=O)N[C@@H](CO)C(=O)N[C@@H](CO)C(=O)NCC(=O)N[C@@H](C)C(=O)N1CCC[C@H]1C(=O)N1CCC[C@H]1C(=O)N1CCC[C@H]1C(=O)N[C@@H](CO)C(N)=O)[C@@H](C)CC)[C@@H](C)CC [Example 233]
hGIPR; [1]
  EC50: 6.08 nM
hGIPR; [2]
  Emax: 91.4%
hGIPR; HEK293, percent of maximal response to GIP(1-42)NH2, 37° C., 0.1% bovine casein, arithmetic mean
  Emax: 105%
hGIPR; [3]
  EC50: 0.0269 nM
hGCGR; [1]
  EC50: > 9950 nM
hGCGR; [3]
  EC50: > 9950 nM
hGLP-1R; [1]
  EC50: 56.7 nM
hGLP-1R; [4]
  Emax: 116%
hGLP-1R; [5]
  Emax: 111%
hGLP-1R; [3]
  EC50: 0.604 nM

## CC[C@H](C)[C@H](NC(=O)[C@H](CCCN)NC(=O)[C@H](CC(=O)O)NC(=O)[C@H](CC(C)C)NC(=O)[C@](C)(CC(C)C)NC(=O)[C@@H](NC(=O)C(C)(C)NC(=O)[C@H](Cc1ccc(O)cc1)NC(=O)[C@H](CC(=O)O)NC(=O)[C@H](CO)NC(=O)[C@@H](NC(=O)[C@](C)(Cc1ccccc1F)NC(=O)[C@@H](NC(=O)CNC(=O)[C@H](CCC(=O)O)NC(=O)C(C)(C)NC(=O)[C@@H](N)Cc1ccc(O)cc1)[C@@H](C)O)[C@@H](C)O)[C@@H](C)CC)C(=O)N[C@@H](C)C(=O)N[C@@H](CCC(N)=O)C(=O)NC(C)(C)C(=O)N[C@@H](CCCCNC(=O)COCCOCCNC(=O)COCCOCCNC(=O)CC[C@H](NC(=O)CCCCCCCCCCCCC(=O)O)C(=O)O)C(=O)N[C@@H](Cc1ccccc1)C(=O)N[C@H](C(=O)N[C@H](CCC(=O)O)C(=O)N[C@@](C)(Cc1ccc(O)cc1)C(=O)N[C@@H](CC(C)C)C(=O)N[C@H](C(=O)N[C@@H](CCCCNC(=O)COCCOCCNC(=O)COCCOCCNC(=O)CC[C@H](NC(=O)CCCCCCCCCCCCC(=O)O)C(=O)O)C(=O)NCC(=O)NCC(=O)N1CCC[C@H]1C(=O)N[C@@H](CO)C(=O)N[C@@H](CO)C(=O)NCC(=O)N[C@@H](C)C(=O)N1CCC[C@H]1C(=O)N1CCC[C@H]1C(=O)N1CCC[C@H]1C(=O)N[C@@H](CO)C(N)=O)[C@@H](C)CC)[C@@H](C)CC [Example 234] (H-Y[Aib]EGT[αMePhe(2-F)]TSDY[Aib]I[αMeL]LD[Orn]IAQ[Aib]K([AEEA-AEEA-γGlu-C14 diacid])FI[dE][αMeY]LIK([AEEA-AEEA-γGlu-C14 diacid])GGPSSGAPPPS-NH2; N-terminus assumed)
hGIPR; [2]
  Emax: 84.4%
hGIPR; [3]
  EC50: 0.0182 nM
hGCGR; [1]
  EC50: > 9950 nM
hGCGR; [3]
  EC50: > 9950 nM
hGLP-1R; [5]
  Emax: 112%
hGLP-1R; [3]
  EC50: 0.319 nM

## CC[C@H](C)[C@H](NC(=O)[C@H](CCCN)NC(=O)[C@H](CC(=O)O)NC(=O)[C@H](CC(C)C)NC(=O)[C@](C)(CC(C)C)NC(=O)[C@@H](NC(=O)C(C)(C)NC(=O)[C@H](Cc1ccc(O)cc1)NC(=O)[C@H](CC(=O)O)NC(=O)[C@H](CO)NC(=O)[C@@H](NC(=O)[C@](C)(Cc1ccccc1F)NC(=O)[C@@H](NC(=O)CNC(=O)[C@H](CCC(=O)O)NC(=O)C(C)(C)NC(=O)[C@@H](N)Cc1ccc(O)cc1)[C@@H](C)O)[C@@H](C)O)[C@@H](C)CC)C(=O)N[C@@H](C)C(=O)N[C@@H](CCC(N)=O)C(=O)NC(C)(C)C(=O)N[C@@H](CCCCNC(=O)COCCOCCNC(=O)COCCOCCNC(=O)CC[C@H](NC(=O)CCCCCCCCCCCCC(=O)O)C(=O)O)C(=O)N[C@@H](Cc1ccccc1)C(=O)N[C@H](C(=O)N[C@H](CCC(=O)O)C(=O)N[C@@](C)(Cc1ccc(O)cc1)C(=O)N[C@@H](CC(C)C)C(=O)N[C@H](C(=O)N[C@@H](CCC(=O)O)C(=O)NCC(=O)NCC(=O)N1CCC[C@H]1C(=O)N[C@@H](CO)C(=O)N[C@@H](CO)C(=O)NCC(=O)N[C@@H](C)C(=O)N1CCC[C@H]1C(=O)N1CCC[C@H]1C(=O)N1CCC[C@H]1C(=O)N[C@@H](CO)C(=O)N[C@@H](CCCCNC(=O)COCCOCCNC(=O)COCCOCCNC(=O)CC[C@H](NC(=O)CCCCCCCCCCCCC(=O)O)C(=O)O)C(N)=O)[C@@H](C)CC)[C@@H](C)CC [Example 235] (H-Y[Aib]EGT[αMePhe(2-F)]TSDY[Aib]I[αMeL]LD[Orn]IAQ[Aib]K([AEEA-AEEA-γGlu-C14 diacid])FI[dE][αMeY]LIEGGPSSGAPPPSK([AEEA-AEEA-γGlu-C14 diacid])-NH2; N-terminus assumed)
hGIPR; [2]
  Emax: 92.2%
hGIPR; [3]
  EC50: 0.0168 nM
hGCGR; [1]
  EC50: > 9950 nM
hGCGR; [3]
  EC50: > 9950 nM
hGLP-1R; [4]
  Emax: 152%
hGLP-1R; [3]
  EC50: 0.295 nM
